From patent publication US9371351B2, “Glycomimetics as Pseudomonas aeruginosa lectin inhibitors” (priority 2012, dated 2016)
Where two headings read alike, the source gives them in different places.

Experiments:
LecB [1] = molecular target: T1, LecB (Pseudomonas aeruginosa, UniProt Q9HYN5); test: biochemical; type: binding
Excerpt: (§1) In this assay format, the displacement of a fluorescently-labeled reporter ligand bound to the receptor by an inhibitor can be measured by mixing protein, inhibitor and reporter ligand in a given buffer system.

LecB [2] = molecular target: T1, LecB; test: biochemical; type: binding; details: for rIC50 (MeMan): IC50 relative to Me-α-Man, below 1 = stronger ligand than Me-α-Man
Method: A LecB competition assay was carried out by a novel fluorescence polarization assay developed by the inventors of the present invention. To date, an enzyme-linked lectin assay (ELLA) is widely used for the evaluation in screening of the binding potential of ligands to LecB. This allows the evaluation of molecules over a broad affinity range, including monovalent ligands and oligomeric dendrimers thereof. ELLAs have been developed based on enzyme-linked immunosorbent assays (ELISA). […] Furthermore, the current ELLA protocol involves either a surface immobilization of LecB or a covalent modification of the lectin, which could interfere with ligand binding. Consequently, hits from the ELLA are usually further characterized by direct measurement of the binding process of the ligand with the native, unmodified protein using microcalorimetry, requiring large amounts of protein.
as §1
Similar conditions were applied, but the protein concentration was fixed at 150 nM. […] The resulting sigmoidal data points on the logarithmic inhibitor concentration scale were used to fit a one-site inhibition model and obtain IC50 values.
After addition of the reagents, the microtiter plates were centrifuged at 800 rpm for 1 min at 23° C. and incubated for 6 h at room temperature. The fluorescence was measured on a Tecan […] F500 plate reader (Tecan Austria GmbH) with excitation filters at 485 nm and emission filters at 535 nm in black 384-well microtiter plates (Greiner Bio-One). The G-factor was set on 0.92154 and the gain to 80. The measured intensities were reduced by buffer values. The data were analyzed with Graphpad Prism 5 and fitted according to the four parameter variable slope model.

LecB [3] = molecular target: T1, LecB; details: LecB and papain treated sheep erythrocytes
Excerpt: (§2) This agglutination could then be disrupted by addition of inhibitors of LecB.
(§3) For the yeast agglutination, PBS-washed S. cerevisiae strain ss328 was used instead of sheep red blood cells, without papain treatment.

LecB [4] = molecular target: T1, LecB; test: Binding thermodynamics to LecB by isothermal calorimetry; details: average of two measurements
LecB [5] = molecular target: T1, LecB; details: LecB 13 μg/mL and S. cerevisiae
Excerpt: as §2, §3

LecB [6] = molecular target: T1, LecB; test: biochemical; type: binding; details: for kd: SPR, 1:1 binding model; for kon: pH 7.4, read-out: ka

T1 sequence (Q9HYN5 entry or part of it): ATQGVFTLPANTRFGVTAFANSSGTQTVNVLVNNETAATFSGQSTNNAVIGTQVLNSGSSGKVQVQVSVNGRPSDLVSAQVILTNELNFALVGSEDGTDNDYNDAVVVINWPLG

Row | SMILES | rIC50 (MeMan) (LecB [2]) | IC50 (LecB [2]) [µM] | other results
1 | CC1OC(OCCNC(=S)Nc2ccc(-c3c4ccc(=O)cc-4oc4cc(O)ccc34)c(C(=O)O)c2)C(O)C(O)C1O (mixture of isomers) [reporter ligand 3, N-(fluorescein-5-yl)-N′-(α-L-fucopyranosylethylen)-thiocarbamide] | – | – | EC50 (LecB [1]): 0.697 µM
2 | CO[C@H]1O[C@H](CNS(=O)(=O)c2ccccc2)[C@@H](O)[C@H](O)[C@@H]1O [10a, Methyl 6-(phenylsulfonylamido)-6-deoxy-α-D-mannopyranoside] | 0.09 | – | –
3 | CO[C@H]1O[C@H](CNS(=O)(=O)c2ccc(C)cc2)[C@@H](O)[C@H](O)[C@@H]1O [10b, Methyl 6-(p-tosylamido)-6-deoxy-α-D-mannopyranoside] | 0.31 | 68.2 | –
4 | CO[C@H]1O[C@H](CNS(=O)(=O)c2ccc(Br)cc2)[C@@H](O)[C@H](O)[C@@H]1O [10c, Methyl 6-(4-bromophenylsulfonylamido)-6-deoxy-α-D-mannopyranoside] | 0.12 | 24.9 | –
5 | CO[C@H]1O[C@H](CNS(=O)(=O)c2ccc([N+](=O)[O-])cc2)[C@@H](O)[C@H](O)[C@@H]1O [10d, Methyl 6-(4-nitrophenylsulfonylamido)-6-deoxy-α-D-mannopyranoside] | 0.21 | 47.4 | –
6 | CO[C@H]1O[C@H](CNS(=O)(=O)c2c(C)cc(C)cc2C)[C@@H](O)[C@H](O)[C@@H]1O [10e, Methyl 6-(2,4,6-trimethylphenylsulfonylamido)-6-deoxy-α-D-mannopyranoside] | 0.015 | – | –
7 | CO[C@H]1O[C@H](CNS(=O)(=O)c2c(C(C)C)cc(C(C)C)cc2C(C)C)[C@@H](O)[C@H](O)[C@@H]1O [10f, Methyl 6-(2,4,6-triisopropylphenylsulfonylamido)-6-deoxy-α-D-mannopyranoside] | 0.05 | 11.5 | –
8 | CO[C@H]1O[C@H](CNC(=O)/C=C/c2ccccc2)[C@@H](O)[C@H](O)[C@@H]1O [11a, Methyl 6-(cinnamido)-6-deoxy-α-D-mannopyranoside] | 0.3 | – | inhibited agglutination at (concentration) (LecB [3]): 23 µM; TΔS (LecB [4]): 3.4 kcal/mol; ΔH (LecB [4]): -2.9 kcal/mol; inhibition of agglutination at (concentration) (LecB [5]): 197 µM
9 | COc1ccccc1/C=C/C(=O)NC[C@H]1O[C@H](OC)[C@@H](O)[C@@H](O)[C@@H]1O [11b, Methyl 6-(2-methoxycinnamido)-6-deoxy-α-D-mannopyranoside] | 0.21 | 45.8 | –
10 | CO[C@H]1O[C@H](CNC(=O)/C=C/c2ccccc2[N+](=O)[O-])[C@@H](O)[C@H](O)[C@@H]1O [11c, Methyl 6-(2-nitrocinnamido)-6-deoxy-α-D-mannopyranoside] | 0.35 | 75.5 | –
11 | CO[C@H]1O[C@H](CNC(=O)/C=C/c2ccccc2N)[C@@H](O)[C@H](O)[C@@H]1O [11d, Methyl 6-(2-aminocinnamido)-6-deoxy-α-D-mannopyranoside] | 0.24 | 52.6 | –
12 | CO[C@H]1O[C@H](CNC(=O)/C=C/c2ccccc2C)[C@@H](O)[C@H](O)[C@@H]1O [11e, Methyl 6-(2-methylcinnamido)-6-deoxy-α-D-mannopyranoside] | 0.29 | 62.7 | –
13 | CO[C@H]1O[C@H](CNC(=O)/C=C/c2cccc([N+](=O)[O-])c2)[C@@H](O)[C@H](O)[C@@H]1O [11f, Methyl 6-(3-nitrocinnamido)-6-deoxy-α-D-mannopyranoside] | 0.25 | 53.4 | –
14 | CO[C@H]1O[C@H](CNC(=O)/C=C/c2cccc(N)c2)[C@@H](O)[C@H](O)[C@@H]1O [11g, Methyl 6-(3-aminocinnamido)-6-deoxy-α-D-mannopyranoside] | 0.29 | 63 | –
15 | COc1ccc(/C=C/C(=O)NC[C@H]2O[C@H](OC)[C@@H](O)[C@@H](O)[C@@H]2O)cc1 [11h, Methyl 6-(4-methoxycinnamido)-6-deoxy-α-D-mannopyranoside] | 0.3 | 66 | –
16 | CO[C@H]1O[C@H](CNC(=O)/C=C/c2ccc([N+](=O)[O-])cc2)[C@@H](O)[C@H](O)[C@@H]1O [11i, Methyl 6-(4-nitrocinnamido)-6-deoxy-α-D-mannopyranoside] | 0.49 | 106 | –

Row | SMILES | rIC50 (MeMan) (LecB [2]) | IC50 (LecB [2]) [µM] | other results
17 | CO[C@H]1O[C@H](CNC(=O)/C=C/c2ccc(N)cc2)[C@@H](O)[C@H](O)[C@@H]1O [11j, Methyl 6-(4-aminocinnamido)-6-deoxy-α-D-mannopyranoside] | 0.24 | 53.2 | –
18 | CO[C@H]1O[C@H](CNC(=O)/C=C/c2ccc(C)cc2)[C@@H](O)[C@H](O)[C@@H]1O [11k, Methyl 6-(4-methylcinnamido)-6-deoxy-α-D-mannopyranoside] | 0.16 | – | –
19 | CO[C@H]1O[C@H](CNC(=O)/C=C/c2ccc(Cl)cc2)[C@@H](O)[C@H](O)[C@@H]1O [11l, Methyl 6-(4-chlorocinnamido)-6-deoxy-α-D-mannopyranoside] | 0.22 | 48.4 | –
20 | CO[C@H]1O[C@H](CNC(=O)/C=C/c2ccc(Cl)cc2Cl)[C@@H](O)[C@H](O)[C@@H]1O [11m, Methyl 6-(2,4-dichlorocinnamido)-6-deoxy-α-D-mannopyranoside] | 0.32 | 71 | –
21 | COc1ccc(/C=C/C(=O)NC[C@H]2O[C@H](OC)[C@@H](O)[C@@H](O)[C@@H]2O)cc1OC [11n, Methyl 6-(3,4-dimethoxycinnamido)-6-deoxy-α-D-mannopyranoside] | 0.13 | – | kd (LecB [6]): 0.0013 s⁻¹
22 | CO[C@H]1O[C@H](CNC(=O)/C=C/c2ccc3c(c2)OCO3)[C@@H](O)[C@H](O)[C@@H]1O [11o, Methyl 6-(3,4-methylenedioxycinnamido)-6-deoxy-α-D-mannopyranoside] | 0.15 | 31.8 | –
23 | CO[C@H]1O[C@H](CNC(=O)Cc2ccccc2)[C@@H](O)[C@H](O)[C@@H]1O [11q, Methyl 6-(phenylacetamido)-6-deoxy-α-D-mannopyranoside] | 0.93 | 205 | –
24 | CO[C@H]1O[C@H](CNC(=O)c2ccc([N+](=O)[O-])cc2)[C@@H](O)[C@H](O)[C@@H]1O [11r, Methyl 6-(4-nitrobenzoylamido)-6-deoxy-α-D-mannopyranoside] | 0.94 | 206 | –
25 | CO[C@H]1O[C@H](CNC(=O)c2ccccc2Cl)[C@@H](O)[C@H](O)[C@@H]1O [11s, Methyl 6-(2-chlorobenzoylamido)-6-deoxy-α-D-mannopyranoside] | 1.09 | 239 | –
26 | CO[C@H]1O[C@H](CNC(=O)c2ccc3ccccc3c2)[C@@H](O)[C@H](O)[C@@H]1O [11t, Methyl 6-(2-naphtoylamido)-6-deoxy-α-D-mannopyranoside] | 0.54 | 118 | –
27 | Cc1cc(C)c(S(=O)(=O)NC[C@H]2OC(C)[C@@H](O)C(O)C2O)c(C)c1 (stereo partly drawn) [13b, N-(6S-Methyl-3R,4R,5R-trihydroxy-tetrahydropyranosyl-2R-methyl)-2,4,6-trimethylphenyl sulfonamide] | – | – | kd (LecB [6]): 0.00041 s⁻¹; kon (LecB [6]): 1260 M⁻¹ s⁻¹
28 | CO[C@H]1O[C@H](CO)[C@@H](O)[C@H](O)[C@@H]1O [Me-α-D-Man, methyl α-D-mannopyranoside, reference compound] | – | – | inhibited agglutination at (concentration) (LecB [3]): 113 µM; TΔS (LecB [4]): 2.6 kcal/mol; ΔH (LecB [4]): -3.2 kcal/mol; inhibition of agglutination at (concentration) (LecB [5]): 444 µM
29 | CC1OC(CNC(=O)/C=C/c2ccccc2)C(O)C(O)[C@@H]1O (stereo partly drawn) [compound 13, N-(6S-Methyl-3R,4R,5R-trihydroxy-tetrahydropyranosyl-2R-methyl)-cinnamide] | 0.1 | – | kd (LecB [6]): 0.00041 s⁻¹; kon (LecB [6]): 255 M⁻¹ s⁻¹
30 | COC1O[C@H](CNS(=O)(=O)/C=C/c2ccccc2)C(O)C(O)[C@@H]1O (stereo partly drawn) [compound 14, Methyl 6-(trans-β-styrenesulfonylamido)-6-deoxy-α-D-mannopyranoside] | – | 79 | –
31 | CC1O[C@H](CNS(=O)(=O)/C=C/c2ccccc2)C(O)C(O)[C@@H]1O (stereo partly drawn) [compound 15, N-(6S-Methyl-3R,4R,5R-trihydroxy-tetrahydropyranosyl-2R-methyl)-trans-β-styrene sulfonamide] | – | 12.7 | –
32 | O=C1OC2(c3ccc(O)cc3Oc3cc(O)ccc32)c2ccc(NC(=S)NCCO[C@H]3O[C@H](CO)[C@@H](O)[C@H](O)[C@@H]3O)cc21 [reporter ligand 5, N-(fluorescein-5-yl)-N′-(α-D-mannopyranosylethylen)-thiocarbamide] | – | – | EC50 (LecB [1]; titration of reporter ligand with LecB, fluorescence polarization, read-out: EC50): > 16 µM
